# From US20220087996A1, “Histone acetylase p300 inhibitor and use thereof” (HINOVA PHARMACEUTICALS INC., priority 2018, published 2022)
# Read-outs that look alike come from different tables or passages of the source.
# Tested on: CWR22RV1 cells
# Assay: Compound in combination with CDK4/6 inhibitor palbociclib on proliferation of CWR22RV1 cells
# Format: cell-based, human
# Conditions: for IC50: Homo sapiens, read-out: IC50 against the activity of CWR22RV1 cells
# Method: The IC50 values (nM) of the compound according to the present invention, palbociclib, and the combination of the compound according to the present invention and palbociclib against CWR22RV1 cell proliferation were tested and calculated, and the detailed procedures were as follows:
# 1) CWR22RV1 cells were subcultured in cell culture medium, and the cells in good growth condition were seeded in a 96-well plate, 60 μL for each well, and the cell number in each well was 2000. The plate was incubated overnight in a 37° C., 5% CO2 cell incubator. 2) The drug was prepared as 10 mM stock solution with dimethyl sulfoxide (DMSO). Prior to use, the stock solution was diluted 3 times with DMSO, and then further diluted as 3-fold gradient to obtain 9 concentration gradients. Then, each concentration of compound was diluted 200 times with the culture solution (ensuring that the DMSO concentration in the culture system was 0.1%), and two replicate wells were set for each concentration. 20 μL of diluted compound solution was added to the cell culture well (with final concentrations of 10 μM, 3.3 μM, 1.1 μM . . . ). Palbociclib was diluted with culture medium to 500 nM, 150 nM, 50 nM, 5 nM, and 20 μL diluted compound solution was added to the corresponding cell culture wells (with a final concentration of 100 nM, 30 nM, 10 nM, 1 nM). The plate was gently shaken to mix. In addition, 3 negative control wells containing only cells and 3 blank control wells containing only culture medium were included (6 wells were each added 20 μL DMSO diluted 200 times with culture medium).
# (1) After culturing for 6 days, 10 μL CCK-8 was added to each well, and the plate was continually cultured in a 37° C., 5% CO2 cell incubator for 2.5 h. (2) The absorbance (OD value) was detected at 450 nm using a multifunctional microplate reader. (3) The data were analyzed by Dose-response-inhibition equation in the software GraphPad Prism6, and the IC50 value was obtained.
compound,measurement,setting,value
"CNC(=O)Nc1ccc2c(c1)CC[C@@]21OC(=O)N(CC(=O)N2C(C)CC[C@H]2c2cc(F)c(F)c(F)c2)C1=O (stereo in doubt) [Example 205, 1-((R)-3′-(2-((2S,5R)-2-(3,4,5-trifluorophenyl)-5-methylpyrrolidin-1-yl)-2-oxoethyl)-2′,4′-dioxo-2,3-dihydrospiro[indene-1,5′-oxazolidine]-5-yl)-3-methylurea]",IC50,"CWR22Rv1, in combination with 1 nM palbociclib",130 nM
same,IC50,"CWR22Rv1, in combination with 10 nM palbociclib",110 nM
same,IC50,"CWR22Rv1, in combination with 30 nM palbociclib",40 nM
same,IC50,"CWR22Rv1, in combination with 100 nM palbociclib",< 1 nM
same,IC50,"CWR22Rv1, single agent",120 nM
same,"inhibitory activity on CWR22RV1 cells when combined with palbociclib, versus either agent alone",combination with CDK4/6 inhibitor palbociclib,much higher
